Where two headings read alike, the source gives them in different places.
Legend:
[1] = system: Phorbol Myristate Stimulated Murine Peritoneal Macrophages; settings: cited from earlier work
[2] = Neta et al. J. Phys. Chem. 1980; cited from earlier work
[3] = Pulse radiolysis: catalysis of the decay (dismutation) of O2.-, absorbance at 260 nm; assay type: biochemical; settings: for kcat (in words): oxygenated solution; for kobs at the plateau: 10 μM O2.-, pH 7.25; for kcat at the plateau after repetitive pulsing: 20 mM formate, 2.4 mM phosphate pH 7.25
Experimental: Pulse radiolysis experiments were carried out with a Varian (Palo Alto, Calif.) 7715 linear accelerator with 5 MeV electron pulses of 1.5 μs duration. The light source of the analyzing beam was a 200 W xenon lamp. The absorption spectra were measured were at room temperature in a 2 cm Spectrosil® cell, the beam passing the cell three times, for an optical path length of 6.1 cm. The dose was 6-19.4 Gy per pulse, as determined from the absorption of the superoxide ion, using G(O2.^−)=6.1 and ε260=1940 M^−1cm^−1, in pH 7.4 O2 saturated 2.4 mM phosphate buffer, containing 20 mM formate.
OsO4 (or its product) catalyzes the decay of the superoxide ion radical. The superoxide ion radical (pKa=4.8) was formed by pulse-irradiation of oxygenated pH 7.2-7.4 buffer solutions. The solutions contained either 0.02 M formate and 2.4 mM phosphate, or 0.2 M 2-PrOH and 12 mM phosphate. In some experiment 5-10 μM diethylenetriaminepentaacetic acid (DTPA) or catalase (75 u/ml) were added. In the presence of either formate or 2-PrOH. All of the primary radicals formed by the radiation (Equation 3) are converted into O2.^− via Reactions 4-7 when formate is added, and by Reactions 4, 8-10, when 2-PrOH is added. In Equation 3 the values in parentheses are the radiation-chemical yields of the species, defined as the number of species produced per 100 eV of absorbed energy γ.

[4] = Pulse radiolysis: decay of carbonate radical CO3.-, absorbance at 600 nm; assay type: biochemical; settings: 0.6 M carbonate
Experimental: Methods. Pulse radiolysis experiments were carried out using a 5-MeV Varian 7715 linear accelerator (0.05-1.5 μs electron pulses, 200 mA current). All measurements were performed at room temperature in a 2-cm spectrosil cell, with three light passes (optical path length 6.1 cm). The formation and decay kinetics of the CO3− radical were tracked by measuring its absorption at 600 nm using ε600=1860 M^−1cm^−1.
Carbonate radical was generated by irradiating N2O-saturated (˜25 mM) aqueous solutions containing 0.1-0.6 M sodium carbonate (pKa(HCO3^−)=10, I=0.5 M) at pH 10.0 by reaction sequence 18-20 (the species radiation yields are in parentheses): […]

CC(=O)OC[C@H]1O[C@@H]([S-])[C@H](OC(C)=O)[C@@H](OC(C)=O)[C@@H]1OC(C)=O.CCP(CC)CC.[Au+] [2,3,4,6-tetra-O-acetyl-1-thio-β-D-glucopyranosato-S (triethylphosphine)]
inhibition of the release of O2.- (in words) ([1]; 10 μM concentration): completely inhibited

Cc1ccc[n+]([O-])c1 [3-picoline N-oxide]
k, reaction with .OH radicals [2]: 3e+09 M⁻¹ s⁻¹

octamminodinitrato-(μ-nitrido)-diosmium trinitrate
% inhibition of O2.- release ([1]; 100 μM concentration): 29±6%

[Os+2].c1ccc(-c2ccccn2)nc1.c1ccc(-c2ccccn2)nc1.c1ccc(-c2ccccn2)nc1 [Os(bpy)3^2+]
kcat (in words) [3]: too low to be measured

Cc1cccc[n+]1[O-] [2-picoline N-oxide]
k, reaction with .OH radicals [2]: 3e+09 M⁻¹ s⁻¹

Cc1cc[n+]([O-])cc1 [4-picoline N-oxide]
k, reaction with .OH radicals [2]: 3e+09 M⁻¹ s⁻¹
shortening of the half-life of CO3.- ([4]; 2 mM, 3 μM CO3.-): about 50%
rate constant of the reaction with CO3.- ([4]; pH 10.0): about 3×10^4 M^−1s^−1

[O-][n+]1ccccc1 [pyridine N-oxide]
k, reaction with .OH radicals [2]: 3e+09 M⁻¹ s⁻¹

[Cl][Os]([Cl])[Cl] [OsCl3, OsCl3.6H2O]
kobs at the plateau ([3]; 1.65 μM OsCl3, after 40 pulses): 1700 s⁻¹
kcat at the plateau after repetitive pulsing [3]: 1.1e+09 M⁻¹ s⁻¹
effect on rate of decay of O2.- in the first pulse ([3]; 1.65 or 3.3 μM OsCl3, first pulse): only a minor increase
kobs at the plateau ([3]; 3.3 OsCl3, after 40 pulses): 3400 s⁻¹

Cc1ccnc(-c2cc(C)ccn2)c1.Cc1ccnc(-c2cc(C)ccn2)c1.Cc1ccnc(-c2cc(C)ccn2)c1.[Os+2] [Os(dimebpy)^2+]
kcat (in words) [3]: too low to be measured

CN(C)CCCN1CCC2(C[CH2][Ge]([CH3])([CH3])[CH2]C2)C1 [(N,N-dimethylaminopropyl)-2-aza-8,8-dimethyl-8-germanospiro-(4,5)-decane]
inhibition of the release of O2.- (in words) ([1]; 10 μM concentration): completely inhibited

[Cl][Os][Cl].c1cnc2c(c1)ccc1cccnc12.c1cnc2c(c1)ccc1cccnc12 [dichlorobis(phenathroline) osmium(II)]
% inhibition of O2.- release ([1]; 10 μM concentration): 24±4%

bis(bipyridyl) dichloroosmium(II)
% inhibition of O2.- release ([1]; 10 μM concentration): 2±2%

K2OsCl6.2H2O Cl6 [OsCl6^2−]
kcat at the plateau after repetitive pulsing [3]: 4e+08 M⁻¹ s⁻¹

— US20050025805A1, “Osmium compounds for reduction of adverse inflammation” (priority 2003, published 2005)
